{
  "source": "patent US20190233825A1",
  "about": "“METHODS OF MODULATING CYTOSOLIC DNA SURVEILLANCE MOLECULES” (BAYER ANIMAL HEALTH GMBH, priority 2015, published 2019)",
  "key": {"BRD [1]": {"system": "BRD", "test": "BRD treatment study in beef calves: Draxxin, Seq No 2-F, combination", "assay_type": "in vivo, cattle", "settings": "56 days after diagnosis", "protocol": "The purpose of this study was to compare the effectiveness of Draxxin®, Draxxin® and Seq No 2-F, or Seq No 2-F alone in cattle diagnosed with BRD.\nThe first group was administered 1.1 ml/cwt of Draxxin® subcutaneously at the time of diagnosis. […] A 3 day moratorium followed treatment, and the study concluded 56 days after the diagnosis."}, "BRD [2]": {"system": "BRD", "test": "BRD treatment study in heifers: Baytril 100, Seq No 2-F, combination", "assay_type": "in vivo, cattle", "settings": "observed until day 60 post-diagnosis"}, "I-ISG54 promoter": {"system": "I-ISG54 promoter", "test": "SEAP reporter assay in B16-Blue ISG cells", "assay_type": "cell-based, murine", "source_text": "B16-Blue™ ISG cells were derived from the murine B16 F1 melanoma cell line. They express the secreted embryonic alkaline phosphatase (SEAP) reporter gene under the control of the I-ISG54 promoter which is comprised of the IFN-inducible ISG54 promoter enhanced by a multimeric ISRE. Stimulation of B16-Blue™ ISG cells with IFNs, cyclic dinucleotides, such as cGAMP, or type I IFN inducers, such as transfected poly(dA:dT), triggers the activation of the I-ISG54 promoter and the production of SEAP."}, "BRD [3]": {"system": "BRD", "test": "Metaphylaxis study in feedlot calves at medium risk of BRD versus Micotil", "settings": "calves observed for 56 days", "method": "Weaned beef calves with an average weight of 590 lbs and determined to be at medium risk for BRD were selected for this study.\nMorbidity, mortality, average daily gain (ADG), dry matter intake (DMI), and feed to weight gain ratio were measured and compared between the study groups."}, "STING": {"system": "STING", "test": "SEAP reporter assay in B16-Blue ISG-KO-STING cells", "assay_type": "cell-based, murine", "from_the_text": "B16-Blue™ ISG-KO-STING cells were generated from the B16-Blue™ ISG cell line, a murine B16-F1 melanoma-derived cell line, through stable knockout of the STING gene. They express the secreted embryonic alkaline phosphatase (SEAP) reporter gene under the control of the I-ISG54 promoter which is comprised of the IFN-inducible ISG54 promoter enhanced by a multimeric ISRE. […] Stimulation of these cells with IFN triggers the activation of the I-ISG54 promoter and the production of SEAP.\nReferring to FIG. 26, known STING pathways activators, Herpes simplex virus DNA complexed with LyoVec (HSV-LyoVec) and the cyclic dinucleotide 2′,3′-cGAMP were used to validate cell line properties."}, "[4]": {"system": "interferon regulatory factor 3 (IRF-3)", "test": "IRF-inducible SEAP reporter assay in THP1-Blue ISG (IRF-THP-1) cells", "from_the_text": "A human macrophage-like (monocyte) cell line (THP-1), derived from an acute monocytic leukemia patient, is used as a model system for monocyte function. THP1-Blue ISG cells (Invitrogen) were generated by stable integration of an interferon regulatory factor (IRF)-inducible secretory alkaline phosphatase (SEAP) reporter construct (IRF-THP1 cells). The THP-1 cells endogenously contain functional STING (Simulator of interferon genes) pathway molecules, as well as cytosolic DNA recognition receptors. STING receives signals from and is itself a cytosolic DNA surveillance molecule that acts through IRF-3. Activation of STING leads to SEAP production, which is then detectable in the culture supernatant. Thus, activation of the IRF-3 reporter SEAP construct correlates to activation of the STING pathway.\nThe stably transfected IRF-THP-1 cell line was tested for its functionality by IFN-α1, which is a global activator of different IRF pathways. IRF-THP-1 cells were contacted with human interferon α1 (IFN α1) as a positive control for IRF-3 activation. […] FIG. 4 graphically illustrates IFN α1 activation of IRF-3."}},
  "data": [
    {"molecule": "CCCNC[C@]1(O)[C@H](C)O[C@@H](O[C@H]2[C@H](C)[C@@H](O[C@@H]3O[C@H](C)C[C@H](N(C)C)[C@H]3O)[C@](C)(O)C[C@@H](C)CN[C@H](C)[C@@H](O)[C@](C)(O)[C@@H](CC)OC(=O)[C@@H]2C)C[C@@]1(C)OC", "note": "[Draxxin, tulathromycin]", "values": [
      {"measurement": "ADG (deads in)", "setting": "BRD [1]", "result": 3.2, "unit": "lbs/day"},
      {"measurement": "ADG (deads out)", "setting": "BRD [1]", "result": 3.3, "unit": "lbs/day"},
      {"measurement": "Avg wt gain (deads in)", "setting": "BRD [1]", "result": 181.1, "unit": "lbs"},
      {"measurement": "Avg wt gain (deads out)", "setting": "BRD [1]", "result": 187.0, "unit": "lbs"},
      {"measurement": "BRD Chronicity", "setting": "BRD [1]", "result": 4.0, "unit": "%"},
      {"measurement": "BRD case-fatality", "setting": "BRD [1]", "result": 1.3, "unit": "%"},
      {"measurement": "BRD morbidity", "setting": "BRD [1]", "result": 29.2, "unit": "%"},
      {"measurement": "BRD repulls", "setting": "BRD [1]", "result": 37.2, "unit": "%"},
      {"measurement": "Time to BRD Dx", "setting": "BRD [1]", "result": 18.8, "unit": "days"}
    ]},
    {"molecule": "CCN1CCN(c2cc3c(cc2F)c(=O)c(C(=O)O)cn3C2CC2)CC1", "note": "[Baytril 100, enrofloxacin]", "values": [
      {"measurement": "ADG (deads out)", "setting": "BRD [2]", "result": 1.8, "unit": "lbs/day"},
      {"measurement": "Avg wt gain (deads in)", "setting": "BRD [2]", "result": 24.3, "unit": "lbs"},
      {"measurement": "Avg wt gain (deads out)", "setting": "BRD [2]", "result": 87.00, "unit": "lbs"},
      {"measurement": "BRD Chronicity", "setting": "BRD [2]", "result": 22.10, "unit": "%"},
      {"measurement": "BRD case-fatality", "setting": "BRD [2]", "result": 10.0, "unit": "%"},
      {"measurement": "BRD repulls", "setting": "BRD [2]", "result": 44.8, "unit": "%"}
    ]},
    {"molecule": "Nc1nc2c(ncn2[C@@H]2O[C@@H]3COP(=O)(O)O[C@H]4[C@@H](O)[C@H](n5cnc6c(N)ncnc65)O[C@@H]4COP(=O)(O)O[C@H]3[C@H]2O)c(=O)[nH]1", "note": "[3′,3′-cGAMP]", "values": [
      {"measurement": "SEAP signal", "setting": "I-ISG54 promoter; controls, FIG. 21", "result": "expected specific signals"}
    ]},
    {"molecule": "CC[C@H]1OC(=O)C[C@@H](O)[C@H](C)[C@@H](O[C@@H]2O[C@H](C)[C@@H](O)[C@H](N(C)C)[C@H]2O)[C@@H](CCN2C[C@H](C)C[C@H](C)C2)C[C@@H](C)C(=O)/C=C/C(C)=C/[C@@H]1CO[C@@H]1O[C@H](C)[C@@H](O)[C@@H](OC)[C@H]1OC", "note": "[Micotil]", "values": [
      {"measurement": "ADG", "setting": "BRD [3]", "result": 2.96},
      {"measurement": "BRD Chronicity", "setting": "BRD [3]", "result": 27.90, "unit": "%"},
      {"measurement": "BRD case-fatality", "setting": "BRD [3]", "result": 3.95, "unit": "%"},
      {"measurement": "BRD repulls", "setting": "BRD [3]", "result": 17.9, "unit": "%"},
      {"measurement": "DMI", "setting": "BRD [3]", "result": 12.96},
      {"measurement": "Feed: Gain", "setting": "BRD [3]", "result": 4.50},
      {"measurement": "Overall BRD Mortality", "setting": "BRD [3]", "result": 0.44, "unit": "%"},
      {"measurement": "Time to BRD Dx", "setting": "BRD [3]", "result": 28.1}
    ]},
    {"molecule": "Nc1nc2c(ncn2[C@@H]2O[C@@H]3COP(=O)(O)O[C@H]4[C@@H](O)[C@H](n5cnc6c(N)ncnc65)O[C@@H]4COP(=O)(O)O[C@@H]2[C@@H]3O)c(=O)[nH]1", "note": "[2′,3′-cGAMP]", "values": [
      {"measurement": "signal (interferon-response element readout)", "setting": "STING", "result": "completely abrogated"},
      {"measurement": "signal (interferon-response element readout)", "setting": "I-ISG54 promoter; parental B16-Blue ISG cell line, FIG. 26", "result": "significant signals"}
    ]},
    {"molecule": "IFN-α1: human interferon α1, positive control, global activator of different IRF pathways (protein, UniProt P01562 24-189, looked up) Interferon alpha-1/13: CDLPETHSLDNRRTLMLLAQMSRISPSSCLMDRHDFGFPQEEFDGNQFQKAPAISVLHELIQQIFNLFTTKDSSAAWDEDLLDKFCTELYQQLNDLEACVMQEERVGETPLMNADSILAVKKYFRRITLYLTEKKYSPCAWEVVRAEIMRSLSLSTNLQERLRRKE", "values": [
      {"measurement": "SEAP signal, dose-response curve", "setting": "[4]; 1.5625-50 μg/ml, FIG. 11", "result": "dose-dependent response"},
      {"measurement": "SEAP signal", "setting": "[4]; IFN-α1 dosing, FIG. 4", "result": "clear dose-response relationship"},
      {"measurement": "SEAP signal", "setting": "I-ISG54 promoter; IFN-α1 dosing, FIG. 20", "result": "clear dose-response relationship"}
    ]}
  ]
}
